From patent publication US20200164047A1, “THERAPY AND DIAGNOSIS OF DISEASE CHARACTERIZED BY ALTERATIONS IN THE DNA DAMAGE RESPONSE” (UNIVERSITÀ DEGLI STUDI DI MILANO, priority 2017, published 2020)

Legend:
Type in all cases: cell-based
[1] = test system: BON-1 neuroendocrine tumor cells; assay: BON-1 cell viability; conditions: metformin with low (2.5 mM) glucose
Description: FIG. 57. […] The assay as performed as described in the other examples.

[2] = test system: cancer cell lines representative of different cancer types; assay: Proliferation of cancer cell lines by CellTiter-Glo assay; conditions: nutrient-rich conditions
Description: FIG. 20. […] (F, G) Quantification of oxygen consumption rate normalized by cell numbers of cells cultured in DMEM medium containing the indicated concentrations of glucose for 12 hours (F) or in DMEM medium containing with 2.5 mM glucose for the indicated time points (G).
CellTiter Glo Luminescent Cell Viability Assay (Promega) was used according to manufacturer's protocol. Briefly, cells were plated in 96 well plates, treated 24h later with different doses of drugs in total volume of 100 μl. 24h later, 100 μl of CellTiter Glo reagent was added to the cells and incubated for 15 min at 37° C. and luminescence was measured using a Promega plate reader.

[3] = test system: HeLa cells; assay: HeLa viable cell count with DNA damaging agents (trypan blue); conditions: hydroxyurea 10 mM + gemcitabine 10 nM; high (10 mM) or low (2.5 mM) glucose
Description: After 24 hrs treatment, cells are allowed to grow for further 24 hrs (replacing the medium with normal medium), before being harvested and counted with trypan blue to measure viable cells.
(§1) HeLa cells were seeded in 6-well plates (200,00 cells/well), and left untreated, or treated with DNA damaging agents (hydroxyurea 10 mM+gemcitabine 10 nM), in high (10 mM) or low (2.5 mM) glucose, and treated with perphenazine (PPZ) as indicated. After 24 hrs treatment, cells are allowed to grow for further 24 hrs (replacing the medium with normal medium), before being harvested and counted with trypan blue to measure viable cells.
as §1, with “FTY-720 (FTY)” for “perphenazine (PPZ)”
as §1, with “Ceramide” for “perphenazine (PPZ)”
Cells were harvested by trypsinization, washed in PBS (pH 7.2), and then stained with trypan blue solution 04% v/v (Sigma Aldrich) added immediately prior to analysis. Cells ware then counted on a TC30 automated cell counter (Biorad).

## CN(C)C(=N)NC(=N)N.Cl [metformin]
[1]
  cell viability: reduction in cell viability
[2]
  anti-proliferative effect: only weak anti-proliferative effects
[3]
  cooperation with DNA damaging agents (viable cells): potentiates the effect of DNA damaging agents in low glucose
